One may read the Ki as the dissociation constant of the complex between target and ligand, obtained from inhibition or displacement. By IC50 is commonly meant the concentration that gives 50% inhibition. The low end stands for greater potency in that assay, the high end for weaker potency in that assay. The term EC50 denotes the concentration needed to bring the measured effect to its halfway point.

Like-named read-outs stand apart in the source and are kept apart here. A value given as a limit tells only on which side of the number the result lay.

Data set [1] deals with T1, adenosine A1 receptor (Homo sapiens, UniProt P30542).
T1 sequence (P30542 1-326): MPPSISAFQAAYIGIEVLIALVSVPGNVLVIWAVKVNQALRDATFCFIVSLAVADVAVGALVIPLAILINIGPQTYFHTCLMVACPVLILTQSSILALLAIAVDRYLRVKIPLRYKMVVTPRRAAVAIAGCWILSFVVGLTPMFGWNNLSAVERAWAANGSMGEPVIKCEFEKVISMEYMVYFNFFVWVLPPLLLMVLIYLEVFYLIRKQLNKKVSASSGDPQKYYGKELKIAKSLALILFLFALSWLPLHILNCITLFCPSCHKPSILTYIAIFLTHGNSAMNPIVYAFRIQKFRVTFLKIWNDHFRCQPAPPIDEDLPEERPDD
Description: Radioligand competition binding, [3H]CCPA, membranes of transfected CHO cells. Particulars: Ki A1 (curve of Figure 2), single experiment. Background: Loss of bound radioactivity is the signal in a displacement assay; it reports binding, not function.

Data set [2] has as its target T2, adenosine A3 receptor (Homo sapiens, UniProt P0DMS8).
T2 sequence (P0DMS8 1-318): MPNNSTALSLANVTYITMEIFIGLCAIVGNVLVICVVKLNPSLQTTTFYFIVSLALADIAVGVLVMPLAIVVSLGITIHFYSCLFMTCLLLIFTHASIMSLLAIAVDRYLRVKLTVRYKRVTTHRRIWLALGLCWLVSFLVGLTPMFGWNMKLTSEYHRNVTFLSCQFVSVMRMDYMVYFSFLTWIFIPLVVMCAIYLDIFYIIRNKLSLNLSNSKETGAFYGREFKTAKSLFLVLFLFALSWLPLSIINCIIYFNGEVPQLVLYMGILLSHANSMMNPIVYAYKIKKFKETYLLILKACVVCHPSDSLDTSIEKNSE
Description: Radioligand competition binding, [3H]HEMADO, membranes of transfected CHO cells.

Data set [3] concerns the target T3, A1 receptor (Homo sapiens, UniProt P30542).
T3 sequence (P30542 1-326): T1 sequence (P30542 1-326)
The format is biochemical. The note with it: for maximal inhibition of forskolin-stimulated adenylyl cyclase: compared with CCPA, n = 3.

The conditions of data set [4]: hematopoietic cell transplant; ref Beitinjaneh et al. 2011, Chun et al. 1986, Ding et al. 2008; cited from earlier work.
In data set [5] the test system is any adenosine receptor subtype. Description: Radioligand competition binding, stated for any adenosine receptor subtype. Also on record: species or system human. Particulars: for binding affinity in words: any adenosine receptor subtype, data not shown; for Ki: read-out: Ki at any of the adenosine receptor subtypes, any subtype.
Data set [6] has as its target A2A adenosine receptor (Homo sapiens, UniProt P29274). Description: A2A receptor-mediated stimulation of adenylyl cyclase, CHO membranes. The format is biochemical. Particulars: for efficacy compared to the full agonist NECA: A2A stimulation of adenylyl cyclase, 1 μM NECA control; for agonist character at the A2A adenosine receptor: compared to NECA.
Data set [7] relates to adenosine receptor subtype A1. The note with it: murine models; ref Lorenzen et al. 1998; cited from earlier work.
Data set [8] has as its target adenosine A2A receptor (Homo sapiens, UniProt P29274). Description: Radioligand competition binding, [3H]NECA, membranes of transfected CHO cells. The note with it: Ki A2A (curve of Figure 2B), single experiment.
Data set [9] addresses T4, A2B receptor (Homo sapiens, UniProt P29275).
T4 sequence (P29275 1-332): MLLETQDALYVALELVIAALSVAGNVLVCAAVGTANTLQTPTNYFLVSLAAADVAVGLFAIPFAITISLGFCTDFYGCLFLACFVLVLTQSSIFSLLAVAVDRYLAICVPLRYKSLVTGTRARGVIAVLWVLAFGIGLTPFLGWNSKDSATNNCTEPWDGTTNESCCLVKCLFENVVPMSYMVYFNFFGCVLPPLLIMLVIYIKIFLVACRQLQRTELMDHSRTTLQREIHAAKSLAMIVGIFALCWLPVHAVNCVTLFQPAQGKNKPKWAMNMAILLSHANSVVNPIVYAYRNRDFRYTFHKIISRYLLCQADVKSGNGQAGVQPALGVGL
Description: A2B receptor-mediated adenylyl cyclase activity, CHO membranes. In kind it is biochemical.

Chain of A2A adenosine receptor (P29274 whole entry): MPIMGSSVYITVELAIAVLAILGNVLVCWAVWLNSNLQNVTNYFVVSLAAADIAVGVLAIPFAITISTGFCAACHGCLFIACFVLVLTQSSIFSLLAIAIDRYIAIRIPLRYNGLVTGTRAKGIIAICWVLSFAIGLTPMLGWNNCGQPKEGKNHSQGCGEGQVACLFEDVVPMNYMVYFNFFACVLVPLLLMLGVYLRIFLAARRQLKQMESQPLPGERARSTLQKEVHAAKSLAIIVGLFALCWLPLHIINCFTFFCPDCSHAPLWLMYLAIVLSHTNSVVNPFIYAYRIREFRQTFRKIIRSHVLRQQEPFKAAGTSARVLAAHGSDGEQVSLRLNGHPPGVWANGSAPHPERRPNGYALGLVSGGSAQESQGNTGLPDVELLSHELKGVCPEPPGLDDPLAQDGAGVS
Chain of adenosine A2A receptor (P29274 whole entry): as above

Turning to `Nc1nc(F)nc2c1ncn2[C@@H]1O[C@H](CO)[C@@H](O)[C@@H]1O` [fludarabine, 2-fluoroadenine-9-β-D-arabinofuranoside], the affinity in [1], expressed as Ki, was 2.24 µM. The compound further showed a Ki in data set [2] above 100 µM. Further, in data set [3], the IC50 was above 10 µM and the “maximal inhibition of forskolin-stimulated adenylyl cyclase” value (“maximal inhibition” for short) is on record as “comparable to the full A1 receptor agonist CCPA”. For the same compound, the “patients experiencing mild to severe neurological toxicities” value in data set [4] is reported as 2-10%.

Take `Nc1ccn([C@@H]2O[C@H](CO)[C@@H](O)C2(F)F)c(=O)n1` [gemcitabine, 2′,2′-difluoro-2′-deoxycytidine]: in [5], the “binding affinity in words” value is reported as “no detectable affinity” and the Ki was above 100 µM.

`Nc1nc(Cl)nc2c1ncn2[C@H]1C[C@H](O)[C@@H](CO)O1` [cladribine, 2-chloro-2′-deoxyadenosine] had a Ki in data set [1] of 1.64 µM. In [2], this compound returned a Ki above 100 µM. In [3], the IC50 is above 10 µM and the “maximal inhibition” value was “comparable to the full A1 receptor agonist CCPA”. Further, in data set [6], the IC50 was 16.1 µM, the “efficacy compared to the full agonist NECA” value was around 40% and the “agonist character at the A2A adenosine receptor” value is “partial agonists”. Besides, in data set [7], the “agonist character at adenosine receptor subtype A1” value is reported as “partial agonist”.

For `Nc1nc(F)nc2c1ncn2[C@@H]1O[C@H](COP(=O)(O)O)[C@@H](O)[C@@H]1O` [Fludarabine monophosphate, 2-fluoroadenine-9-β-D-arabinofuranoside-5′phosphate], the “binding affinity in words” value in data set [5] was “no detectable affinity”.

On to `Nc1ccn([C@@H]2O[C@H](CO)[C@@H](O)[C@@H]2O)c(=O)n1` [cytarabine, cytosine β-D-arabinofuranoside], for which, in [5], the “binding affinity in words” value is on record as “no detectable affinity” and the Ki was above 100 µM.

On to `Nc1nc(Cl)nc2c1ncn2[C@@H]1O[C@H](CO)[C@@H](O)[C@@H]1F` [clofarabine, 2-chloro-2′-arabino-fluoro-2′-deoxyadenosine], for which the Ki in data set [1] turned out to be 0.248 µM; in data set [8], 17.5 µM; in data set [2] (Ki A3 (curve of Figure 2B), [3H]HEMADO, single experiment), 8.28 µM. In [3] (10 μM, versus equivalent concentrations of fludarabine or cladribine), the “efficacy in decreasing adenylyl cyclase activity, comparison” value is “more efficacious”. Moreover, the IC50 was 3.1 µM in data set [3] (IC50 A1 agonist, adenylyl cyclase inhibition, values in text and abstract); 9.8 µM in [6]. Moreover, in data set [3], the “maximal inhibition” value is “comparable to the full A1 receptor agonist CCPA”. In addition, the “efficacy compared to the full agonist NECA” value in data set [6] was “about 50%”. Besides, in data set [6], the “agonist character at the A2A adenosine receptor” value is reported as “partial agonists”. In addition, the EC50 in data set [9] was above 100 µM.

The values are drawn from PMC3831620 (Naunyn-Schmiedeberg's archives of pharmacology, 2012).
